Reference: ChEMBL document CHEMBL1157354, “Asymmetric synthesis of inhibitors of glycinamide ribonucleotide transformylase” (J Med Chem, 2008)

Experiments:
[1] = target: Bifunctional purine biosynthesis protein ATIC (Homo sapiens, UniProt P31939); experiment: Inhibition of human recombinant AICAR transformylase
CCRF-CEM [2] = experiment: Cytotoxicity against human CCRF-CEM cells in absence of thymidine and hypoxanthine
CCRF-CEM [3] = experiment: Cytotoxicity against human CCRF-CEM cells in presence of thymidine and absence of hypoxanthine
CCRF-CEM [4] = experiment: Cytotoxicity against human CCRF-CEM cells in absence of thymidine and presence of hypoxanthine
CCRF-CEM [5] = experiment: Cytotoxicity against folyl-poly-glutamate synthetase-deficient human CCRF-CEM cells in absence of thymidine and hypoxanthine
CCRF-CEM [6] = experiment: Cytotoxicity against human CCRF-CEM cells expressing reduced folate carrier in absence of thymidine and hypoxanthine
[7] = target: T1, Trifunctional purine biosynthetic protein adenosine-3 (Homo sapiens, UniProt P22102); experiment: Inhibition of human recombinant GAR transformylase
T1 sequence (P22102 whole entry): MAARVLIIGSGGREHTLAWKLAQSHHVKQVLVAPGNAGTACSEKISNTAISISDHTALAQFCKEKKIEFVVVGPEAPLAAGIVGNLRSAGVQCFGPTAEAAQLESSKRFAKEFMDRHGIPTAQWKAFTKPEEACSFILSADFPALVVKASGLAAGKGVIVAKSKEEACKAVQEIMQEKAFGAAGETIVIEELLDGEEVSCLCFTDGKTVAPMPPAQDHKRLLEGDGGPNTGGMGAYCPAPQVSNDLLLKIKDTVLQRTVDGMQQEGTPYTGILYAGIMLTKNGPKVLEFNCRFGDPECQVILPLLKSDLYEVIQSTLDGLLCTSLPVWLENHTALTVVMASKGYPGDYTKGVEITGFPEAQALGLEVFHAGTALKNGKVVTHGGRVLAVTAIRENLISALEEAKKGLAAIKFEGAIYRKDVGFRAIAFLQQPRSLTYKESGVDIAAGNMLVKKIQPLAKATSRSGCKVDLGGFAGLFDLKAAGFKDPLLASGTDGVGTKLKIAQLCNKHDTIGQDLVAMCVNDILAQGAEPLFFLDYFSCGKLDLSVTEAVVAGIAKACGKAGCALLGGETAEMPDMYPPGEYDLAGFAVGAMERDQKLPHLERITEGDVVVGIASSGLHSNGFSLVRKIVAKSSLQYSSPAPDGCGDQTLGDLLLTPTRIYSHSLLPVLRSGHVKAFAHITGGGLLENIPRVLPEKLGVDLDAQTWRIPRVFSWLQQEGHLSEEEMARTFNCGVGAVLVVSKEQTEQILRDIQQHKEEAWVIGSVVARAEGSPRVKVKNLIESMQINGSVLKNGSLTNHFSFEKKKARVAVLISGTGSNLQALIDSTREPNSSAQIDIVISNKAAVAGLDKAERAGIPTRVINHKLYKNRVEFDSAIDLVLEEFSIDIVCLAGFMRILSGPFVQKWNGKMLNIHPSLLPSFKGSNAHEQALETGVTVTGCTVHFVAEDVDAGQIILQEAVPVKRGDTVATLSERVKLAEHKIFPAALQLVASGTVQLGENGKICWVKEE

Chain of Bifunctional purine biosynthesis protein ATIC (P31939 whole entry): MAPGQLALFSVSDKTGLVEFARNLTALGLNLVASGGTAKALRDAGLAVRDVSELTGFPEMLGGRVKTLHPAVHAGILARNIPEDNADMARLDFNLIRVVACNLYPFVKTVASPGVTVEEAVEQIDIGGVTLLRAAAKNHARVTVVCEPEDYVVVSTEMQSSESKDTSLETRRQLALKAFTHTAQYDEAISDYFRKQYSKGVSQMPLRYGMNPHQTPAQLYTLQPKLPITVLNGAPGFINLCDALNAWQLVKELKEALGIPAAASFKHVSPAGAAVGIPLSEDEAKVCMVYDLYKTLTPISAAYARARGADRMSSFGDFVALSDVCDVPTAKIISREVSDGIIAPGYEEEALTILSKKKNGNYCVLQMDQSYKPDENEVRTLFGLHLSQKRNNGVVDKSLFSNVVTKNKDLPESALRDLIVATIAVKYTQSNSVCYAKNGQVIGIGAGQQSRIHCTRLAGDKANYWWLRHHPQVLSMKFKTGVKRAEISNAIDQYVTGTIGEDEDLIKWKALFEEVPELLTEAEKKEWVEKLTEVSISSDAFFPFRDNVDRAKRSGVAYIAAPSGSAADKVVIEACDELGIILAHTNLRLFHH

Compound | Ki [1] | IC50 (CCRF-CEM [2]) | IC50 (CCRF-CEM [3]) | IC50 (CCRF-CEM [4]) | IC50 (CCRF-CEM [5]) | IC50 (CCRF-CEM [6]) | Ki [7]
Nc1nc(N)c(CCCC(C(=O)C(F)(F)F)c2ccc(C(=O)N[C@@H](CCC(=O)O)C(=O)O)cc2)c(=O)[nH]1 (some centres not stated) | > 100 µM | 0.016 µM | 0.017 µM | > 10 µM | > 10 µM | – | –
CS[C@@H](CCCc1c(N)nc(N)[nH]c1=O)c1ccc(C(=O)N[C@@H](CCC(=O)O)C(=O)O)cc1 | > 100 µM | 0.05 µM | 0.07 µM | > 10 µM | 5 µM | 0.06 µM | –
CO[C@H](CCCc1c(N)nc(N)[nH]c1=O)c1ccc(C(=O)N[C@@H](CCC(=O)O)C(=O)O)cc1 | > 100 µM | 0.5 µM | 0.7 µM | > 10 µM | 6 µM | 0.6 µM | –
Nc1nc(N)c(CCCC2(c3ccc(C(=O)N[C@@H](CCC(=O)O)C(=O)O)cc3)SCCCS2)c(=O)[nH]1 | 20 µM | > 100 µM | > 100 µM | > 10 µM | – | – | –
Nc1nc(N)c(CCC[C@@H](O)c2ccc(C(=O)N[C@@H](CCC(=O)O)C(=O)O)cc2)c(=O)[nH]1 | > 100 µM | 2.4 µM | 5.7 µM | > 10 µM | > 10 µM | – | 1.1 µM
CS[C@H](CCCc1c(N)nc(N)[nH]c1=O)c1ccc(C(=O)N[C@@H](CCC(=O)O)C(=O)O)cc1 | > 100 µM | 0.08 µM | 0.08 µM | > 10 µM | 5.5 µM | 0.07 µM | –
Nc1nc(N)c(CCC[C@H](O)c2ccc(C(=O)N[C@@H](CCC(=O)O)C(=O)O)cc2)c(=O)[nH]1 | > 100 µM | – | – | > 10 µM | > 10 µM | – | –
CO[C@@H](CCCc1c(N)nc(N)[nH]c1=O)c1ccc(C(=O)N[C@@H](CCC(=O)O)C(=O)O)cc1 | > 100 µM | 0.7 µM | 0.9 µM | > 10 µM | > 10 µM | 0.9 µM | –
Nc1nc(N)c(CCCCc2ccc(C(=O)N[C@@H](CCC(=O)O)C(=O)O)cc2)c(=O)[nH]1 [DIDEAZAACYCLOTETRAHYDROFOLIC ACID] | 20 µM | 2.7 µM | 3.6 µM | > 10 µM | > 10 µM | > 100 µM | –
Nc1nc2c(c(=O)[nH]1)C[C@@H](CCc1ccc(C(=O)N[C@@H](CCC(=O)O)C(=O)O)cc1)CN2 [LOMETREXOL] | > 100 µM | – | – | > 10 µM | > 10 µM | > 100 µM | –
